Data taken from patent US11078170B2 (Assembly Biosciences, Inc., priority 2017, dated 2021).

system: HBV viral production from HepAD38 cells; test: Activity of test compounds on viral production from HepAD38 cells (viral load by qPCR of HBV core sequence in supernatant); format: cell-based; details: Hepatitis B virus, 120 h, 5 days incubation, HBV DNA in supernatant by qPCR, top concentration 10 μM, read-out: Viral Load EC50 Activity range
Procedure, shortened: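 EC50 and CC50 come from four-parameter fits of supernatant viral load and CellTiter-Glo viability, respectively. Viral load was measured by core-region TaqMan qPCR against HBV DNA standards and compared with DMSO controls. Tet-free HepAD38 cells (50,000/well, 2% FBS) were exposed to compound, highest 10 μM, for 5 days at 37° C.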

Going from `O=C(Nc1ccc(F)c(Cl)c1)[C@@H]1C[C@H](c2nccs2)NS(=O)(=O)N1CCCO` [HBV-CSU-078-ISO-I, Cis-N-(3-Chloro-4-fluorophenyl)-2-(3-hydroxypropyl)-5-(thiazol-2-yl)-1,2,6-thiadiazinane-3-carboxamide 1,1-dioxide] to `C=CCN1[C@@H](C(=O)Nc2ccc(F)c(Cl)c2)C[C@@H](c2nccs2)NS1(=O)=O` [HBV-CSU-094-ISO-I, Cis-2-Allyl-N-(3-chloro-4-fluorophenyl)-5-(thiazol-2-yl)-1,2,6-thiadiazinane-3-carboxamide 1,1-dioxide], the EC50 rises from < 1000 nM to > 5000 nM. The first is the more potent here.

`Cc1nn(C)c(C)c1-c1csc(C2CC(C(=O)Nc3ccc(F)c(Cl)c3)N(C)S(=O)(=O)N2)c1` (racemic) [HBV-CSU-317, Cis-N-(3-chloro-4-fluorophenyl)-2-methyl-5-(4-(1,3,5-trimethyl-1H-pyrazol-4-yl)thiophen-2-yl)-1,2,6-thiadiazinane-3-carboxamide 1,1-dioxide] and `Cc1c(-c2csc(C3CC(C(=O)Nc4ccc(F)c(Cl)c4)N(C)S(=O)(=O)N3)c2)cnn1C` (stereo not drawn) [HBV-CSU-315, Cis-N-(3-chloro-4-fluorophenyl)-5-(4-(1,5-dimethyl-1H-pyrazol-4-yl)thiophen-2-yl)-2-methyl-1,2,6-thiadiazinane-3-carboxamide 1,1-dioxide] cannot be ordered by EC50: < 1000 nM for the first, < 1000 nM for the second.

First: CN1[C@@H](C(=O)Nc2ccc(F)c(Cl)c2)C[C@@H](c2ccc(-c3cnn(C)c3)cc2)NS1(=O)=O (relative stereo) [HBV-CSU-246-ISO-I, Cis-N-(3-Chloro-4-fluorophenyl)-2-methyl-5-(4-(1-methyl-1H-pyrazol-4-yl)phenyl)-1,2,6-thiadiazinane-3-carboxamide 1,1-dioxide]
Second: CN1[C@@H](C(=O)Nc2ccc(F)c(Cl)c2)C[C@@H](c2ccc(-c3cnn(C)c3)s2)NS1(=O)=O [HBV-CSU-161-ISO-II, Cis-N-(3-chloro-4-fluorophenyl)-2-methyl-5-(5-(1-methyl-1H-pyrazol-4-yl)thiophen-2-yl)-1,2,6-thiadiazinane-3-carboxamide 1,1-dioxide]
The EC50 of the first is higher: > 5000 nM for the first, 1000 to 5000 nM for the second.

`CN1[C@H](C(=O)Nc2ccc(F)c(Cl)c2)C[C@H](c2ccc(-c3ncn(C)n3)s2)NS1(=O)=O` [HBV-CSU-322-ISO-I, Cis-N-(3-Chloro-4-fluorophenyl)-2-methyl-5-(5-(1-methyl-1H-1,2,4-triazol-3-yl)thiophen-2-yl)-1,2,6-thiadiazinane-3-carboxamide 1,1-dioxide] and `CN1[C@H](C(=O)Nc2ccc(F)c(Cl)c2)C[C@H](c2ccc(-c3c[nH]cn3)s2)NS1(=O)=O` [HBV-CSU-331-ISO-I, Cis-5-(5-(1H-imidazol-4-yl)thiophen-2-yl)-N-(3-chloro-4-fluorophenyl)-2-methyl-1,2,6-thiadiazinane-3-carboxamide 1,1-dioxide] cannot be ordered by EC50: < 1000 nM for the first, < 1000 nM for the second.

Compared with `CN1[C@@H](C(=O)Nc2ccc(F)c(Cl)c2)C[C@@H](c2ncc(-c3ccc(NS(C)(=O)=O)cc3)s2)NS1(=O)=O` (relative stereo) [HBV-CSU-179, Cis-N-(3-Chloro-4-fluorophenyl)-2-methyl-5-(5-(4-(methylsulfonamido)phenyl)thiazol-2-yl)-1,2,6-thiadiazinane-3-carboxamide 1,1-dioxide], `CN1[C@@H](C(=O)Nc2ccc(F)c(Cl)c2)C[C@@H](c2ncc(-c3ccccn3)s2)NS1(=O)=O` [HBV-CSU-176-ISO-II, Cis-N-(3-chloro-4-fluorophenyl)-2-methyl-5-(5-(pyridin-2-yl)thiazol-2-yl)-1,2,6-thiadiazinane-3-carboxamide 1,1-dioxide] is higher in EC50: < 1000 nM for the first, > 5000 nM for the second. The first is the more potent here.

`CN1[C@H](C(=O)Nc2ccc(F)c(Cl)c2)C[C@H](c2ncc(-c3cncs3)s2)NS1(=O)=O` (relative stereo) [HBV-CSU-278-ISO-I, Cis-5-([5,5′-Bithiazol]-2-yl)-N-(3-chloro-4-fluorophenyl)-2-methyl-1,2,6-thiadiazinane-3-carboxamide 1,1-dioxide] and `CN1[C@@H](C(=O)Nc2ccc(F)c(Cl)c2)C[C@H](c2ncc(-c3cn(C)cn3)s2)NS1(=O)=O` [HBV-CSU-276-Trans-ISO-I, (3R,5R)-N-(3-chloro-4-fluorophenyl)-2-methyl-5-(5-(1-methyl-1H-imidazol-4-yl)thiazol-2-yl)-1,2,6-thiadiazinane-3-carboxamide 1,1-dioxide] cannot be ordered by EC50: < 1000 nM for the first, < 1000 nM for the second.

Compared with `CN1[C@@H](C(=O)Nc2ccc(F)c(Cl)c2)C[C@@H](c2nccs2)NS1(=O)=O` [HBV-CSU-027-ISO-I, Cis-N-(3-chloro-4-fluorophenyl)-2-methyl-5-(thiazol-2-yl)-1,2,6-thiadiazinane-3-carboxamide 1,1-dioxide], `Cc1csc(C2CC(C(=O)Nc3ccc(F)c(Cl)c3)N(C)S(=O)(=O)N2)c1` (racemic) [HBV-CSU-147, Cis-N-(3-chloro-4-fluorophenyl)-2-methyl-5-(4-methylthiophen-2-yl)-1,2,6-thiadiazinane-3-carboxamide 1,1-dioxide] is lower in EC50: > 5000 nM for the first, < 1000 nM for the second.

Compared with `CN1C(C(=O)Nc2ccc(F)c(Cl)c2)CC(c2ccc(C(F)(F)F)cc2)NS1(=O)=O` (racemic) [HBV-CSU-217, Cis-N-(3-Chloro-4-fluorophenyl)-2-methyl-5-(4-(trifluoromethyl)phenyl)-1,2,6-thiadiazinane-3-carboxamide 1,1-dioxide], `CN1C(C(=O)Nc2ccc(F)c(Cl)c2)CC(c2ccc(C(N)=O)cc2)NS1(=O)=O` (racemic) [HBV-CSU-214, Cis-5-(4-Carbamoylphenyl)-N-(3-chloro-4-fluorophenyl)-2-methyl-1,2,6-thiadiazinane-3-carboxamide 1,1-dioxide] is lower in EC50: 1000 to 5000 nM for the first, < 1000 nM for the second.

Compared with `CN1C(C(=O)Nc2ccc(F)c(Cl)c2)CC(c2ccc(-c3cccnc3)s2)NS1(=O)=O` (racemic) [HBV-CSU-159, Cis-N-(3-chloro-4-fluorophenyl)-2-methyl-5-(5-(pyridin-3-yl)thiophen-2-yl)-1,2,6-thiadiazinane-3-carboxamide 1,1-dioxide], `CN1C(C(=O)Nc2ccc(F)c(Cl)c2)CC(c2ccc(-c3ccc(Br)c(F)c3)s2)NS1(=O)=O` (stereo not drawn) [HBV-CSU-157, Cis-N-(3-chloro-4-fluorophenyl)-5-(5-(4-bromo-3-fluorophenyl)thiophen-2-yl)-2-methyl-1,2,6-thiadiazinane-3-carboxamide 1,1-dioxide] is higher in EC50: < 1000 nM for the first, 1000 to 5000 nM for the second.

Going from `CN1[C@@H](C(=O)Nc2ccc(F)c(Cl)c2)C[C@@H](c2ccc(Br)s2)NS1(=O)=O` [HBV-CSU-114-ISO-II, 5-(5-Bromothiophen-2-yl)-N-(3-chloro-4-fluorophenyl)-2-methyl-1,2,6-thiadiazinane-3-carboxamide 1,1-dioxide] to `Cc1cc(C2CC(C(=O)Nc3ccc(F)c(Cl)c3)N(C)S(=O)(=O)N2)sc1Br` (stereo not drawn) [HBV-CSU-335, Cis-5-(5-bromo-4-methylthiophen-2-yl)-N-(3-chloro-4-fluorophenyl)-2-methyl-1,2,6-thiadiazinane-3-carboxamide 1,1-dioxide], the EC50 falls from > 5000 nM to < 1000 nM.

`CN1C(C(=O)Nc2ccc(F)c(Cl)c2)CC(c2cc(-c3cn[nH]c3)cs2)NS1(=O)=O` (stereo not shown) [HBV-CSU-245] and `CN1[C@H](C(=O)Nc2ccc(F)c(Cl)c2)C[C@H](c2cc(-c3cn[nH]c3)cs2)NS1(=O)=O` [HBV-CSU-245-ISO-I] cannot be ordered by EC50: < 1000 nM for the first, < 1000 nM for the second.

`CN1C(C(=O)Nc2ccc(F)c(Cl)c2)CC(c2ccc(Br)c(F)c2)NS1(=O)=O` (stereo not drawn) [HBV-CSU-283, Cis-5-(4-Bromo-3-fluorophenyl)-N-(3-chloro-4-fluorophenyl)-2-methyl-1,2,6-thiadiazinane-3-carboxamide 1,1-dioxide] and `CN1[C@@H](C(=O)Nc2ccc(F)c(Cl)c2)C[C@@H](c2ccc3c(c2)ncn3C)NS1(=O)=O` (relative stereo) [HBV-CSU-360-ISO-II, Cis-N-(3-chloro-4-fluorophenyl)-2-methyl-5-(1-methyl-1H-benzo[d]imidazol-5-yl)-1,2,6-thiadiazinane-3-carboxamide 1,1-dioxide] cannot be ordered by EC50: < 1000 nM for the first, < 1000 nM for the second.

`CN1C(C(=O)Nc2ccc(F)c(Cl)c2)CC(c2cc(-c3cccs3)cs2)NS1(=O)=O` (stereo not shown) [HBV-CSU-170] and `COc1ccc(-c2csc([C@H]3C[C@@H](C(=O)Nc4ccc(F)c(Cl)c4)N(C)S(=O)(=O)N3)c2)cc1` [HBV-CSU-241-ISO-I] cannot be ordered by EC50: < 1000 nM for the first, < 1000 nM for the second.

Compared with `CN1C(C(=O)Nc2cccc(Br)c2)CC(c2cccs2)NS1(=O)=O` (stereo not drawn) [HBV-CSU-017, Cis-N-(3-Bromophenyl)-2-methyl-5-(thiophen-2-yl)-1,2,6-thiadiazinane-3-carboxamide 1,1-dioxide], `CCn1cc(-c2ccc([C@@H]3C[C@H](C(=O)Nc4ccc(F)c(Cl)c4)N(C)S(=O)(=O)N3)s2)cn1` [HBV-CSU-291-ISO-II, Cis-N-(3-chloro-4-fluorophenyl)-5-(5-(1-ethyl-1H-pyrazol-4-yl)thiophen-2-yl)-2-methyl-1,2,6-thiadiazinane-3-carboxamide 1,1-dioxide] is higher in EC50: < 1000 nM for the first, > 5000 nM for the second. The first is the more potent here.

`[2H]C1[C@]([2H])(c2ccc(Br)s2)NS(=O)(=O)N(C)[C@]1([2H])C(=O)Nc1ccc(F)c(Cl)c1` (stereo in doubt) [HBV-CSU-371-ISO-I, Cis-5-(5-Bromothiophen-2-yl)-N-(3-chloro-4-fluorophenyl)-2-methyl-1,2,6-thiadiazinane-3,4,5-d3-3-carboxamide 1,1-dioxide] and `Cc1cc([C@H]2C[C@@H](C(=O)Nc3ccc(F)c(Cl)c3)N(C)S(=O)(=O)N2)sc1-c1cnn(C)c1` (relative stereo) [HBV-CSU-300-ISO-I, Cis-N-(3-Chloro-4-fluorophenyl)-5-(4-methyl-5-(1-methyl-1H-pyrazol-4-yl)thiophen-2-yl)-2-methyl-1,2,6-thiadiazinane-3-carboxamide 1,1-dioxide] cannot be ordered by EC50: < 1000 nM for the first, < 1000 nM for the second.

In the case of `[2H]C([2H])([2H])N1[C@H](C(=O)Nc2ccc(F)c(Cl)c2)C[C@H](c2ncc(-c3cn(C([2H])([2H])[2H])cn3)s2)NS1(=O)=O` [HBV-CSU-337-ISO-I, Cis-N-(3-Chloro-4-fluorophenyl)-2-(methyl-d3)-5-(5-(1-(methyl-d3)-1H-imidazol-4-yl)thiazol-2-yl)-1,2,6-thiadiazinane-3-carboxamide 1,1-dioxide], the EC50 is reported as < 1000 nM.
